Measurements reported in patent publication US20130053434A1, “IRREVERSIBLE INHIBITORS USEFUL FOR THE TREATMENT OF KINASE-RELATED PATHOLOGIES” (CENTRE NATIONAL DE LA RECHERCHE SCIENTIFIQUE, priority 2009, published 2013).
Read-outs that look alike come from different tables or passages of the source.

Assays:
[1] = test system: orthotopically implanted RENCA-LN cells; assay: orthotopic murine renal cell carcinoma (RENCA) model, in vivo efficacy; conditions: untreated group had two animals; groups of 12
Experimental: RENCA-LN cells were obtained and cultured as described above. Sixty female BALB/c mice of 5 to 6 weeks were orthotopically implanted RENCA-LN cells into the left kidney (4×10^5 cells in 25 μl aliquots into the subcapsular space through a flank incision, Day 0). The mice were randomly divided into 5 groups of 12 mice each. On day 2, therapy was initiated. Animals in the vehicle control group (group 1) received 10 ml/kg Vehicle (PBS w/o Ca/Mg, 10% DMSO, 40% PEG-300) i.p. once daily until day 19. Animals of positive control group (group 2) received 40 mg/kg Sunitinib (Sutent®) p.o. once daily until day 20. Animals of treatment group 3 and 4 received 20 mg/kg of 3 once daily and every other day respectively (i.p.). Animals of treatment group 5 received 20 mg/kg of 5 once daily (i.p.). Due to partial weight loss, therapy in Groups 3 and 5 was suspended on days 11 and 12 and stopped on day 17. On day 20, the study was terminated and a necropsy performed. All animals were weighted, anaesthetised by isoflurane and killed by exsanguination. Two animals in group 1 were found dead on day 19 and 1 animal in group 3 and 5 on day 11 and 9 respectively. At necropsy, primary tumor weight and volume, lung weight and number of lung metastases were determined. Primary tumor tissues were collected and divided into two parts. One part of each tumor was snap-frozen in liquid nitrogen and stored at −80° C. whereas the other part was analyzed via ex vivo bioluminescence imaging. During the course of the study, the growth of the orthotopically implanted RENCA tumors was monitored on days 7, 14 and 19 using in vivo bioluminescence imaging. For this purpose, luciferin was injected intraperitoneally (i.p.) into the mice and light emission was measured post injection (10 min) using a NightOWL LB 981 bioluminescence imaging system (Berthold Technologies, Germany). The migration of RENCA tumor cells into the lung (metastasis) was analyzed post necropsy by counting nodules and using the luciferase assay. For this purpose, lungs were collected, homogenized, and assayed for luciferase activity using the kit from Promega (E1501) according to the manufacturer's instructions. Protein concentrations were determined using a Bradford assay and used to normalize luciferase activities (except for the primary tumor). A histological examination of the tumor vasculature was performed. For this purpose, cryosections of primary tumor tissues (thickness=5-10 μm) from the snap-frozen portion of the organ and blood vessels were visualized by immunohistochemical staining for CD 31 (PECAM-1; PharMingen, San Diego, Calif.). […] Statistical analysis of efficacy data was done using the Mann Whitney test.

MEK1 = MEK1 (Homo sapiens, UniProt Q02750); assay: panel of 402 kinases: MEK1; format: binding; conditions: read-out: residual activity relatively to control
Experimental: (§1) Two representative library members (1afh and 1bgi) were then evaluated in a larger panel of kinases (402) using the technology described by Lockhart et al. (M. A. Fabian, et al., Nat. Biotechnol. 2005, 23, 329-336; M. W. Karaman, et al., Nat. Biotechnol. 2008, 26, 127-132). In this panel, 31 kinases out of the 46 kinases bioinformatically identified by Santi and coworkers are present along with numerous other kinases bearing a cysteine residue at other positions within the ATP-binding pocket (J. Zhang, P. L. Yang, N. S. Gray, Nat. Rev. Cancer 2009, 9, 28-39).
(§2) The selectivity profile was measure using the KinomeScan™ technology (http://www.kinomescan.com/) based on active-site dependent competition binding assay (Karaman, M. W., et al. (2008) Nat. Biotechnol. 26, 127-32; Fabian, M. A., et al. (2005) Nat. Biotechnol. 23, 329-36). Compounds 3 and 5 were profiled against a panel of 50 kinases including 42 kinases from the group of 48 kinases predicted by Santi et al. (Schirmer, A., et al. (2006) Proc. Natl. Acad. Sci. USA 103, 4234-9) to be targeted by hypothemycin and 5 mutants of FLT3 as well as 3 mutants of KIT. Both compounds were assayed at 1 μM. The results are expressed as a percentage of signal between a negative (DMSO) and positive (know binder) control [(test compound−positive control)/([…])×100].

Flt3 K663Q = Flt3 K663Q (Homo sapiens, UniProt P36888, K663Q); assay: kinase mutants: Flt3 K663Q; format: binding; conditions: gain of function mutation
Experimental: as §1
(§3) The two compounds were also evaluated against a series of mutations of Flt3 and KIT. It is known that several mutation in Flt3 lead to a gain of function or constitutive activity.

GSK3β = GSK3β (Homo sapiens, UniProt P49841); assay: panel of 402 kinases: GSK3β; format: binding; conditions: 1 μM
Experimental: as §1, §2

ERK1 = biological target: T1, ERK1 (Homo sapiens, UniProt P27361); assay: panel of 402 kinases: ERK1; format: binding; conditions: 1 μM
T1 construct: purchased KinomeScan
Experimental: as §1, §2

TAK1 = biological target: T2, TAK1 (Homo sapiens, UniProt O43318); assay: panel of 402 kinases: TAK1; format: binding; conditions: read-out: residual activity relatively to control
T2 construct: purchased KinomeScan
Experimental: as §1, §2

MEK2 = biological target: T3, MEK2 (Homo sapiens, UniProt P36507); assay: panel of 402 kinases: MEK2; format: binding; conditions: read-out: residual activity relatively to control
T3 construct: purchased KinomeScan
Experimental: as §1, §2

KIT V559D, T670I = KIT V559D, T670I (Homo sapiens, UniProt P10721, T670I/V559D); assay: kinase mutants: KIT V559D, T670I; format: binding; conditions: dual mutation conferring resistance to imatinib
Experimental: as §1, §3

Flt3 = biological target: T4, Flt3 (Homo sapiens, UniProt P36888); assay: panel of 402 kinases: Flt3; format: binding; conditions: read-out: residual activity relatively to control
T4 construct: purchased KinomeScan
Experimental: as §1, §2

GAK = biological target: T5, GAK (Homo sapiens, UniProt O14976); assay: panel of 402 kinases: GAK; format: binding; conditions: read-out: residual activity relatively to control
T5 construct: purchased KinomeScan
Experimental: as §1, §2

panel of kinases (402) = assay: larger panel of kinases (402), competition binding, whole panel; conditions: 1 μM
Experimental: as §1, §2

CDKL5 = biological target: T6, CDKL5 (Homo sapiens, UniProt O76039); assay: panel of 402 kinases: CDKL5; format: binding; conditions: 1 μM
T6 construct: purchased KinomeScan
Experimental: as §1, §2

PRP4 = biological target: T7, PRP4 (Homo sapiens, UniProt Q13523); assay: panel of 402 kinases: PRP4; format: binding; conditions: 1 μM
T7 construct: purchased KinomeScan
Experimental: as §1, §2

KIT L576P = KIT L576P (Homo sapiens, UniProt P10721, L576P); assay: kinase mutants: KIT L576P; format: binding; conditions: gain of function mutation
Experimental: as §1, §3

Flt3 N841L = assay: kinase mutants: Flt3 N841L; format: binding; conditions: gain of function mutation
Experimental: as §1, §3

NIK = biological target: T8, NIK (Homo sapiens, UniProt Q99558); assay: panel of 402 kinases: NIK; format: binding; conditions: 1 μM
T8 construct: purchased KinomeScan
Experimental: as §1, §2

MKNK2 = biological target: T9, MKNK2 (Homo sapiens, UniProt Q9HBH9); assay: panel of 402 kinases: MKNK2; format: binding; conditions: read-out: residual activity relatively to control
T9 construct: purchased KinomeScan
Experimental: as §1, §2

KIT V559D, V654A = KIT V559D, V654A (Homo sapiens, UniProt P10721, V559D/V654A); assay: kinase mutants: KIT V559D, V654A; format: binding; conditions: dual mutation conferring resistance to imatinib
Experimental: as §1, §3

MKNK1 = biological target: T10, MKNK1 (Homo sapiens, UniProt Q9BUB5); assay: panel of 402 kinases: MKNK1; format: binding; conditions: read-out: residual activity relatively to control
T10 construct: purchased KinomeScan
Experimental: as §1, §2

KIT = KIT (Homo sapiens, UniProt P10721); assay: panel of 402 kinases: KIT; format: binding; conditions: read-out: residual activity relatively to control
Experimental: as §1, §2

PDGFRβ = biological target: T11, PDGFRβ (Homo sapiens, UniProt P09619); assay: panel of 402 kinases: PDGFRβ; format: binding; conditions: read-out: residual activity relatively to control
T11 construct: purchased KinomeScan
Experimental: as §1, §2

KIT D816V = KIT D816V (Homo sapiens, UniProt P10721, D816V); assay: kinase mutants: KIT D816V; format: binding; conditions: gain of function mutation
Experimental: as §1, §3

Flt3 D835Y = Flt3 D835Y (Homo sapiens, UniProt P36888, D835Y); assay: kinase mutants: Flt3 D835Y; format: binding; conditions: gain of function mutation
Experimental: as §1, §3

NLK = biological target: T12, NLK (Homo sapiens, UniProt Q9UBE8); assay: panel of 402 kinases: NLK; format: binding; conditions: 1 μM
T12 construct: purchased KinomeScan
Experimental: as §1, §2

KIT V559D = KIT V559D (Homo sapiens, UniProt P10721, V559D); assay: kinase mutants: KIT V559D; format: binding; conditions: gain of function mutation
Experimental: as §1, §3

TGFR2 = biological target: T13, TGFR2 (Homo sapiens, UniProt P37173); assay: panel of 402 kinases: TGFR2; format: binding; conditions: read-out: residual activity relatively to control
T13 construct: purchased KinomeScan
Experimental: as §1, §2

Flt1 = biological target: T14, Flt1 (Homo sapiens, UniProt P17948); assay: panel of 402 kinases: Flt1; format: binding; conditions: read-out: residual activity relatively to control
T14 construct: purchased KinomeScan
Experimental: as §1, §2

PDGFRα = biological target: T15, PDGFRα (Homo sapiens, UniProt P16234); assay: panel of 402 kinases: PDGFRα; format: binding; conditions: read-out: residual activity relatively to control
T15 construct: purchased KinomeScan
Experimental: as §1, §2

[2] = ester bond, DIAD/PPh3, toluene, 23.0 °C, 1.5 h, 2 steps

T1 sequence (P27361 whole entry): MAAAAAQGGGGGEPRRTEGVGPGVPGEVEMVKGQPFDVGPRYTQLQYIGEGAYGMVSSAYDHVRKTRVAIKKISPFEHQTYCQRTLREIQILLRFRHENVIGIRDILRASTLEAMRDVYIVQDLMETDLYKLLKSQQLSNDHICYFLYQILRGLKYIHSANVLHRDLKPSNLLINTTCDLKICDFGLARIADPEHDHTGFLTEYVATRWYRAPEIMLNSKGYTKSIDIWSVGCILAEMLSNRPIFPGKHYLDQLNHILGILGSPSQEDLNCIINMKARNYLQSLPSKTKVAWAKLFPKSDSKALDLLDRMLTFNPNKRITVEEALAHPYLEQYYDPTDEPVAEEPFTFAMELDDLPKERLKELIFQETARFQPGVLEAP
T13 sequence (P37173 23-567): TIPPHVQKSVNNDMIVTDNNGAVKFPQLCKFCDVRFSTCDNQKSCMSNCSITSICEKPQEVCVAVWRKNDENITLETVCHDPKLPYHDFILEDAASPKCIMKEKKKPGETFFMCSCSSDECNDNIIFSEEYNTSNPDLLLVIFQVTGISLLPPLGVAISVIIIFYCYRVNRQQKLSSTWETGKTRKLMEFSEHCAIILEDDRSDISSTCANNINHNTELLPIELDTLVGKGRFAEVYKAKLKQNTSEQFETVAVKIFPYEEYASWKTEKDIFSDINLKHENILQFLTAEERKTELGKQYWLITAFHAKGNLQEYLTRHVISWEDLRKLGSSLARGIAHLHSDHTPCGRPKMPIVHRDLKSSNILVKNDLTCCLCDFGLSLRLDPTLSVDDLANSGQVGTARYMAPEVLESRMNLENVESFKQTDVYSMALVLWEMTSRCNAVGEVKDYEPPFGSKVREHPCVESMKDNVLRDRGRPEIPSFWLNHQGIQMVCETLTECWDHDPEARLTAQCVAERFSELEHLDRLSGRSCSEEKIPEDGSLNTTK
KIT, sequence (P10721 26-976): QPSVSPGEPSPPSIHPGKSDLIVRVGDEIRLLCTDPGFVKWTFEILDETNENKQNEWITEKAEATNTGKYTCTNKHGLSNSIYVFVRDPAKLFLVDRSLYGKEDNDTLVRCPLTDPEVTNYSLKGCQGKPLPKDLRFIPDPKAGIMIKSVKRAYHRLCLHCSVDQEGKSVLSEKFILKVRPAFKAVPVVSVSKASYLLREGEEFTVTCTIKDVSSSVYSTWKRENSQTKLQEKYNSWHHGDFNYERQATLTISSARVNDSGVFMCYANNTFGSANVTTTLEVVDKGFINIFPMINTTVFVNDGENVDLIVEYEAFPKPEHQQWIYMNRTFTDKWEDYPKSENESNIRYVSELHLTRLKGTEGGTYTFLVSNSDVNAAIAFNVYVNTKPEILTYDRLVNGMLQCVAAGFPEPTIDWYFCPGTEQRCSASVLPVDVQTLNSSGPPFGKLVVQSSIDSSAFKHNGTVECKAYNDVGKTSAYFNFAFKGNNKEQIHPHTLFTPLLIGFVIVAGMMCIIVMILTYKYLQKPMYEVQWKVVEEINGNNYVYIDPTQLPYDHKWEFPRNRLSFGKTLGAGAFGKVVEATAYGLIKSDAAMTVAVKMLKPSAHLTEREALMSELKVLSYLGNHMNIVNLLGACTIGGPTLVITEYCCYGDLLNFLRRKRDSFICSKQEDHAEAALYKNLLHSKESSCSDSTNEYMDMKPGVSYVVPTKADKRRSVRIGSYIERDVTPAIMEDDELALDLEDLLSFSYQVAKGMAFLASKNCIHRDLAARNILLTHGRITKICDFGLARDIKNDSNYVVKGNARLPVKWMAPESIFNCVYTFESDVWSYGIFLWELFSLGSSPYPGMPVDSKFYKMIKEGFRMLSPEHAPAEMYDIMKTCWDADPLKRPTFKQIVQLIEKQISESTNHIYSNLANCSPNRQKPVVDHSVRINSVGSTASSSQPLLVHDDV
T6 sequence (O76039 whole entry): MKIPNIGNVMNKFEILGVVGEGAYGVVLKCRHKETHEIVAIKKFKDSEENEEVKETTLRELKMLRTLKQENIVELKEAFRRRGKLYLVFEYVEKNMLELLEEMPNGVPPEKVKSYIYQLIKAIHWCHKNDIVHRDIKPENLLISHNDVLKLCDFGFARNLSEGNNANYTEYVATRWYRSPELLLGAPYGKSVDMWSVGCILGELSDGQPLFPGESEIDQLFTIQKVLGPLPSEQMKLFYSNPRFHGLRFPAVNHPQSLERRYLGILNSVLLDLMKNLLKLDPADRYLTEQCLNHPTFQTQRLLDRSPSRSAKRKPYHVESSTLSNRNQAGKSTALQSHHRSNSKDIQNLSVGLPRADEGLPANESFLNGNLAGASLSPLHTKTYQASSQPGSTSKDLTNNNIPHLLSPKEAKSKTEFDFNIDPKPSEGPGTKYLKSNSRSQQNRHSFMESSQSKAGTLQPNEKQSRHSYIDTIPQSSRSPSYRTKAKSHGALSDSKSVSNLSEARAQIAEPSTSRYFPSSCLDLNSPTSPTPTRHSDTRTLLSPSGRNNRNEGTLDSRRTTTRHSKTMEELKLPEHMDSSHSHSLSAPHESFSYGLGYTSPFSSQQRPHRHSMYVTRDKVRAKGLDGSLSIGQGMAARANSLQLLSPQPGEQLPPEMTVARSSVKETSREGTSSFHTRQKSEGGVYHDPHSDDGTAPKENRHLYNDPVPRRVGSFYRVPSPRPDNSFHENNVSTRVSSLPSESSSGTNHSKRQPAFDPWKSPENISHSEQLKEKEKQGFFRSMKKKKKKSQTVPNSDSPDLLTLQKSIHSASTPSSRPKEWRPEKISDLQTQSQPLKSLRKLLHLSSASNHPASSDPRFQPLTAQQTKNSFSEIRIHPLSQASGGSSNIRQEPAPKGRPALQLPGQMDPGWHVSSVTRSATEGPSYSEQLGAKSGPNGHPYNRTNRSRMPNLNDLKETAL
T11 sequence (P09619 33-1106): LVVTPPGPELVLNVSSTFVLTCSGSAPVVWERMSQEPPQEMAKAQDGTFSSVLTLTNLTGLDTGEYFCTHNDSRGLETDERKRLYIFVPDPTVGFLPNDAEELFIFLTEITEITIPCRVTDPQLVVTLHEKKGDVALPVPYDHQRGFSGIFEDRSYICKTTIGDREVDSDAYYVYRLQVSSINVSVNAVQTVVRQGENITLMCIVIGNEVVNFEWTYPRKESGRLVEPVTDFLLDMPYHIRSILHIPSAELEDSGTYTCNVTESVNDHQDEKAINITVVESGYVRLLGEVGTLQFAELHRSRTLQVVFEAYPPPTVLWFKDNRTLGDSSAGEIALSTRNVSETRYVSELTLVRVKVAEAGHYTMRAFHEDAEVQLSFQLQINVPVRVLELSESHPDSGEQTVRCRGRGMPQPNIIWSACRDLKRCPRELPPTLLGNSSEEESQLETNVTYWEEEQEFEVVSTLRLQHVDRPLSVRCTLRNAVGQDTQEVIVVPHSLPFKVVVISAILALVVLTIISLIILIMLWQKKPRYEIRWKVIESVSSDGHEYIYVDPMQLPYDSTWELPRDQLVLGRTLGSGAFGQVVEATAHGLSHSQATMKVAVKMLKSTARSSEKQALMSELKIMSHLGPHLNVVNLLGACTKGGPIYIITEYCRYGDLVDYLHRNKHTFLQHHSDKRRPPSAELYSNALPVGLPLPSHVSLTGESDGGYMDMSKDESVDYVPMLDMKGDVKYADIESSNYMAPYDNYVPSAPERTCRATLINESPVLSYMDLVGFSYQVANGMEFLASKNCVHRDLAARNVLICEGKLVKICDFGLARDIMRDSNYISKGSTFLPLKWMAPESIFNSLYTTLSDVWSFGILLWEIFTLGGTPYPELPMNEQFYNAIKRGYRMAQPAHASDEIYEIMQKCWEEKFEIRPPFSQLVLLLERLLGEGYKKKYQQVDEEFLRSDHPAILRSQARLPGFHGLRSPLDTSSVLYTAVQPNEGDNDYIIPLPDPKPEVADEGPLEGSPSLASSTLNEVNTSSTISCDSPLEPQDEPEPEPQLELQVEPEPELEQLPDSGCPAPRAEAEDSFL
T10 sequence (Q9BUB5 whole entry): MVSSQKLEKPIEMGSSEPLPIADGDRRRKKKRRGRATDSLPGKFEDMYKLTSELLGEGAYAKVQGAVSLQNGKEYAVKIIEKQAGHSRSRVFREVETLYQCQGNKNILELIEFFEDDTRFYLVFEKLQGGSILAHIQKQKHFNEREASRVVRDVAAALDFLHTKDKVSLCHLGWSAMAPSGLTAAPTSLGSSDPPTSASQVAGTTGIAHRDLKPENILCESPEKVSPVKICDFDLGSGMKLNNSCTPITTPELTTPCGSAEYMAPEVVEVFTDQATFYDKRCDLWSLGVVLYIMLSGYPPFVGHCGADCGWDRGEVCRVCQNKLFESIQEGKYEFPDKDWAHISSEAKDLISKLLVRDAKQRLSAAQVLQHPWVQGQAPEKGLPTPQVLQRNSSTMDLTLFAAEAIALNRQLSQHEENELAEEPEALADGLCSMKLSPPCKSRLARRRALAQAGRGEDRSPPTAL
T12 sequence (Q9UBE8 whole entry): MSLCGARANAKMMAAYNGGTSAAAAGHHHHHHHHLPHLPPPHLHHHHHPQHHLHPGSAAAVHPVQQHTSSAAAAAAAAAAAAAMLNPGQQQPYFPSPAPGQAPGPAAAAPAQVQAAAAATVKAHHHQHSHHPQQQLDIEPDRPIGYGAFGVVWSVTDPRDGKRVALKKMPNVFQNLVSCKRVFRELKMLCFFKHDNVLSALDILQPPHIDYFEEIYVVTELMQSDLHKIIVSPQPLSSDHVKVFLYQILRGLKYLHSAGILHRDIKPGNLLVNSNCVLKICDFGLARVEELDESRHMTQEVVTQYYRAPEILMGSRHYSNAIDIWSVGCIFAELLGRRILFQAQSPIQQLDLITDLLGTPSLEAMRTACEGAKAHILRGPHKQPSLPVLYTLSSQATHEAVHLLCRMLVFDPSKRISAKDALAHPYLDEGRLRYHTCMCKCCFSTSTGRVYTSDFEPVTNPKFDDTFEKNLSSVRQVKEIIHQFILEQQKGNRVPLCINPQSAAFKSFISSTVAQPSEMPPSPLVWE
KIT V559D, V654A, sequence (P10721 26-976 V559D/V654A): as the sequence (P10721 26-976) above, with V534D, V629A counted along it
KIT V559D, T670I, sequence (P10721 26-976 V559D/T670I): as the sequence (P10721 26-976) above, with V534D, T645I counted along it
KIT V559D, sequence (P10721 26-976 V559D): as the sequence (P10721 26-976) above, with V534D counted along it

CCN(CC)CCNC(=O)c1c(C)[nH]c(/C=C2\C(=O)Nc3ccc(F)cc32)c1C [sunitinib, reference compound]
animals having a high count of lung metastatic nodules [1]: 5

C[C@H]1C/C=C\C(=O)[C@@H](O)[C@@H](O)CCCc2cc(O)cc(O)c2C(=O)O1 [1afh]
remaining activity at 1 µM (MEK1): < 10% | sensitivity of mutant to the inhibitors (Flt3 K663Q): remained equally sensitive | inhibition (GSK3β): not inhibited | inhibition (ERK1): not inhibited | remaining activity at 1 µM (TAK1): < 10% | remaining activity at 1 µM (MEK2): < 10% | activity against dual mutation (KIT V559D, T670I): not active | remaining activity at 1 µM (Flt3): < 10% | remaining activity at 1 µM (GAK): < 10% | number of kinases outside of the set of 46 predicted kinases showing significant inhibition (STK36 and PRKD2) (panel of kinases (402)): two | number of kinases out of 31 with more than 50% residual activity (panel of kinases (402); 31 of the 46 predicted kinases): 11 | inhibition (CDKL5): not inhibited | inhibition (PRP4): not inhibited | activity against mutant (KIT L576P): retained their activity | sensitivity of mutant to the inhibitors (Flt3 N841L): remained equally sensitive | inhibition (NIK): not inhibited | remaining activity at 1 µM (MKNK2): < 10% | activity against dual mutation (KIT V559D, V654A): not active | remaining activity at 1 µM (MKNK1): < 10% | remaining activity at 1 µM (KIT): < 10% | remaining activity at 1 µM (PDGFRβ): < 10% | activity against mutant (KIT D816V): retained their activity | activity against mutant compared with wild type (Flt3 D835Y): more active than against the wild type | inhibition (NLK): not inhibited | activity against mutant (KIT V559D): retained their activity | remaining activity at 1 µM (TGFR2): < 10% | remaining activity at 1 µM (Flt1): < 10% | remaining activity at 1 µM (PDGFRα): < 10%

CCOCOc1cc2c(c(OCOCC)c1)C(=O)O[C@@H](C)C/C=C(/F)C(OC(=O)c1ccccc1)[C@H]1OC(C)(C)O[C@H]1CCO2 (stereo partly shown)
ring closure, yield of all isomers ([2]; from CCOCOc1cc(OCC[C@@H]2OC(C)(C)O[C@@H]2C(OC(=O)c2ccccc2)/C(F)=C\C[C@@H](C)O)c(C(=O)O)c(OCOCC)c1, 10.5 mM): 70%

CCOCOc1cc2c(c(OCOCC)c1)C(=O)O[C@@H](C)C/C=C(/F)C(OC(=O)c1ccccc1)[C@H]1OC(C)(C)O[C@H]1C/C=C/2 (stereo partly shown)
ring closure, yield of all isomers ([2]; from CCOCOc1cc(/C=C/C[C@@H]2OC(C)(C)O[C@@H]2C(OC(=O)c2ccccc2)/C(F)=C\C[C@@H](C)O)c(C(=O)O)c(OCOCC)c1, 10.2 mM): 74%
